Biological target: T1, sEH (human recombinant) (Homo sapiens, UniProt P34913)
T1 sequence (P34913 1-555): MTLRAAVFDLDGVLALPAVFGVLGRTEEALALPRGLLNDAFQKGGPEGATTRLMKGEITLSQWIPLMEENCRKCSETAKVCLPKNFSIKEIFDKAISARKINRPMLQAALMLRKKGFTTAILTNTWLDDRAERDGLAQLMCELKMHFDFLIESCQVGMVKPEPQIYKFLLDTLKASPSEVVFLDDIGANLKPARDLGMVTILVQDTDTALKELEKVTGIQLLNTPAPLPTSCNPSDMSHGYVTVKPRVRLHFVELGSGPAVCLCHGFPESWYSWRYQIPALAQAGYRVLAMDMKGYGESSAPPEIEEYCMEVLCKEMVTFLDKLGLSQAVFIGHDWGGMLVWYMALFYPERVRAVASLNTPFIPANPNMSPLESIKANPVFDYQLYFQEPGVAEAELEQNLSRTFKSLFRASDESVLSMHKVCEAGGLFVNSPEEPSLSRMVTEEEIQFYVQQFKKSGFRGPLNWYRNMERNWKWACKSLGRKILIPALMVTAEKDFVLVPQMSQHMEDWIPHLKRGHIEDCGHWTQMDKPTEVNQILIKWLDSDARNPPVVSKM
Experiment: sEH inhibition assay (fluorescence);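 further: enzyme preincubated with compound 30 min at 25 °C, then substrate added and fluorescence read after 15 min at 25 °C, 320 nm and 460 nm, versus DMSO negative control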
Description: sEH Assay Buffer was purchased from Cayman Chemical; sEH (human recombinant) was purchased from Cayman Chemical; sEH substrate was purchased from Cayman Chemical. The working solution of 20% DMSO for the compounds was prepared by mixing dimethyl sulfoxide with water in a volume ratio of 1:4, and shaking to mix well.
sEH Assay Buffer (10×), SEH (human recombinant) and sEH substrate were thawed on ice.
The sEH Assay Buffer (lux) was prepared into a 1×sEH Assay Buffer with deionized water. 12 μL of sEH was added with 588 µL of 1× Assay Buffer to be diluted 50 times to obtain a sEH working solution. 180 µL of 1× Assay Buffer was added into the corresponding wells; the sEH working solution was added to the corresponding wells at 5 μL/well; the working solution of 20% DMSO for the compounds was added into the corresponding wells at 5 μL/well, and blank wells and negative control wells added with an equal amount of DMSO were set. After centrifuged at 1000 rpm for 1 minute, the wells were incubated at 25° C. for 30 minutes. After incubation, the substrate was added into the 96-wells plate at 5 μL/well and the plate was centrifuged at 1000 rpm for 1 minute. After incubation at 25° C. for 15 minutes, fluorescence values were read at emission wavelengths of 320 nm and 460 nm.

SMILES | IC50 [µM]
COc1ccc2c(c1)C(=O)N(CCc1ccc(S(=O)(=O)N(C)C(=O)NC3CCCCC3)cc1)C(=O)C2(C)C [Compound I-2] | < 0.2
COc1ccc(Cl)cc1C(=O)NCCc1ccc(S(=O)(=O)N(C)C(=O)NC2CCCCC2)cc1 [Compound I-3] | < 0.2
CC(=O)c1ccc(S(=O)(=O)N(C)C(=O)NC2CCCCC2)cc1 [Compound I-5] | 0.2 to 1
C=CCN(C(=O)N[C@H]1CC[C@H](C)CC1)S(=O)(=O)c1ccc(CCNC(=O)N2CC(C)=C(CC)C2=O)cc1 [Compound I-6] | 1 to 10
Cc1ccc(S(=O)(=O)N(C(=O)NN2CC3CCCC3C2)C(C)C)cc1 (stereo not drawn) [Compound I-7] | 1 to 10
CCC1=C(C)CN(C(=O)NCCc2ccc(S(=O)(=O)N(C(=O)N[C@H]3CC[C@H](C)CC3)C3CC3)cc2)C1=O [Compound I-8] | 1 to 10
CCC1=C(C)CN(C(=O)NCCc2ccc(S(=O)(=O)N(C)C(=O)N[C@H]3CC[C@H](CO)CC3)cc2)C1=O [Compound I-9] | 0.2 to 1
CCNC(=O)OC[C@H]1CC[C@H](NC(=O)NS(=O)(=O)c2ccc(CCNC(=O)N3CC(C)=C(CC)C3=O)cc2)CC1 [Compound I-10] | 0.2 to 1
CCNC(=O)OC[C@H]1CC[C@H](NC(=O)N(C)S(=O)(=O)c2ccc(CCNC(=O)N3CC(C)=C(CC)C3=O)cc2)CC1 [Compound I-11] | < 0.2
CCC1=C(C)CN(C(=O)NCCc2ccc(S(=O)(=O)NC(=O)N[C@H]3CC[C@H](COC(=O)NC4CC4)CC3)cc2)C1=O [Compound I-12] | 0.2 to 1
CCC1=C(C)CN(C(=O)NCCc2ccc(S(=O)(=O)NC(=O)N[C@H]3CC[C@H](COC(=O)Nc4ccc(OC(F)(F)F)cc4)CC3)cc2)C1=O [Compound I-13] | 1 to 10
CCC1=C(C)CN(C(=O)NCCc2ccc(S(=O)(=O)NC(=O)N[C@H]3CC[C@H](COC(=O)CN(C)C)CC3)cc2)C1=O [Compound I-14] | 10 to 100
CCC1=C(C)CN(C(=O)NCCc2ccc(S(=O)(=O)NC(=O)N[C@H]3CC[C@H](COC(=O)CN4CCCCC4)CC3)cc2)C1=O [Compound I-16] | 0.2 to 1
CCC1=C(C)CN(C(=O)NCCc2ccc(S(=O)(=O)NC(=O)N[C@H]3CC[C@H](C(=O)OC(C)OC(=O)OC4CCCCC4)CC3)cc2)C1=O (stereo partly drawn) [Compound I-17] | 10 to 100
CCC1=C(C)CN(C(=O)NCCc2ccc(S(=O)(=O)NC(=O)N[C@H]3CC[C@H](COP(=O)(OCOC(=O)OC(C)C)OCOC(=O)OC(C)C)CC3)cc2)C1=O [Compound I-18] | 10 to 100
CCC1=C(C)CN(C(=O)NCCc2ccc(S(=O)(=O)NC(=O)N[C@H]3CC[C@H](CO[P@](=O)(N[C@@H](C)C(=O)OC(C)C)Oc4ccccc4)CC3)cc2)C1=O [Compound I-19] | 10 to 100
CCC1=C(C)CN(C(=O)NCCc2ccc(S(=O)(=O)N(C)C(=O)N[C@H]3CC[C@H](COCP(=O)(OCOC(=O)OC(C)C)OCOC(=O)OC(C)C)CC3)cc2)C1=O [Compound I-21] | 10 to 100
CCC1=C(C)CN(C(=O)NCCc2ccc(S(=O)(=O)N(C)C(=O)N[C@H]3CC[C@H](CO[P@](=O)(N[C@@H](C)C(=O)OC(C)C)Oc4ccccc4)CC3)cc2)C1=O [Compound I-22] | 10 to 100
CCC1=C(C)CN(C(=O)NCCc2ccc(S(=O)(=O)N(C)C(=O)N[C@H]3CC[C@H](COC(C)=O)CC3)cc2)C1=O [Compound I-24] | 1 to 10
CCC1=C(C)CN(C(=O)NCCc2ccc(S(=O)(=O)NC(=O)N[C@H]3CC[C@H](COC)CC3)cc2)C1=O [Compound I-25] | 0.2 to 1
CCC1=C(C)CN(C(=O)NCCc2ccc(S(=O)(=O)NC(=O)NC3CCC(C(=O)OC)CC3)cc2)C1=O (stereo not drawn) [Compound I-26] | 1 to 10
CCC1=C(C)CN(C(=O)NCCc2ccc(S(=O)(=O)N(C)C(=O)NC3CCC(C(=O)O)CC3)cc2)C1=O (stereo not drawn) [Compound I-27] | 10 to 100
CCC1=C(C)CN(C(=O)NCCc2ccc(S(=O)(=O)NC(=O)NC3CCC(C(=O)NC)CC3)cc2)C1=O (stereo not drawn) [Compound I-29] | 1 to 10
CCCC1=C(C)CN(C(=O)NCCc2ccc(S(=O)(=O)NC(=O)NC3CCC(C(=O)OC)CC3)cc2)C1=O (stereo not drawn) [Compound I-30] | 10 to 100

From patent publication US20250145564A1, “SULFONYLUREA COMPOUND, PREPARATION METHOD THEREFOR, AND APPLICATION THEREOF” (SHANGHAI INSTITUTE OF MATERIA MEDICA, CHINESE ACADEMY OF …, priority 2021, published 2025)
